Results reported in ChEMBL document CHEMBL1201862, “PubChem BioAssay data set” (2004).
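Dose response: 5 concentrations. Exposure: 48 h. Format: 96-well plates. Endpoint: linear interpolation; highest concentration if not reached. Abbreviation: GI50, concentration required for 50% inhibition of growth.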 Calls of active or inactive are those of the source. Rule as the data show it: active = GI50 up to about 1.1 µM and inactive = higher.

Key:
Experiment in all cases: NCI-60 cell line screen, 48 h
HT-29 = test system: HT-29
K562 = test system: K562
COLO 205 = test system: COLO 205
SF-268 = test system: SF-268
SNB-19 = test system: SNB-19
OVCAR-8 = test system: OVCAR-8
M14 = test system: M14
UACC-62 = test system: UACC-62
LXFL 529 = test system: LXFL 529
SK-MEL-28 = test system: SK-MEL-28
HCT-116 = test system: HCT-116
HCC 2998 = test system: HCC 2998
OVCAR-4 = test system: OVCAR-4
NCI-H226 = test system: NCI-H226
A498 = test system: A498
IGROV-1 = test system: IGROV-1
SK-MEL-2 = test system: SK-MEL-2
CAKI-1 = test system: CAKI-1
SF-295 = test system: SF-295
KM-20L2 = test system: KM-20L2
SW-620 = test system: SW-620
SN12C = test system: SN12C
KM12 = test system: KM12
RXF 631 = test system: RXF 631
NCI-H460 = test system: NCI-H460
786-0 = test system: 786-0
SF-539 = test system: SF-539
NCI-H522 = test system: NCI-H522
DMS-273 = test system: DMS-273
NCI-H23 = test system: NCI-H23
HOP-62 = test system: HOP-62
A549 = test system: A549
CCRF-CEM = test system: CCRF-CEM
ACHN = test system: ACHN
OVCAR-5 = test system: OVCAR-5
UO-31 = test system: UO-31
SR = test system: SR
OVCAR-3 = test system: OVCAR-3
RPMI-8226 = test system: RPMI-8226
U-251 = test system: U-251
HCT-15 = test system: HCT-15
MOLT-4 = test system: MOLT-4
LOX IMVI = test system: LOX IMVI
HL-60 = test system: HL-60
UACC-257 = test system: UACC-257
SNB-78 = test system: SNB-78
RXF 393 = test system: RXF 393
SK-OV-3 = test system: SK-OV-3
HOP-92 = test system: HOP-92
SNB-75 = test system: SNB-75
M19-MEL = test system: M19-MEL
TK-10 = test system: TK-10
SK-MEL-5 = test system: SK-MEL-5
DMS-114 = test system: DMS-114
EKVX = test system: EKVX
Malme-3M = test system: Malme-3M

COc1ccc2c(CCNS(=O)(=O)c3ccccc3)c(C(C)=O)[nH]c2c1[N+](=O)[O-]
GI50 (HT-29): > 100 µM (inactive) | GI50 (K562): > 100 µM (inactive) | GI50 (COLO 205): > 100 µM (inactive) | GI50 (SF-268): 53.3 µM (inactive) | GI50 (SNB-19): > 100 µM (inactive) | GI50 (OVCAR-8): 65.2 µM (inactive) | GI50 (M14): > 100 µM (inactive) | GI50 (UACC-62): 48.5 µM (inactive) | GI50 (LXFL 529): > 100 µM (inactive) | GI50 (SK-MEL-28): > 10 µM (inactive) | GI50 (HCT-116): > 100 µM (inactive) | GI50 (HCC 2998): > 100 µM (inactive) | GI50 (OVCAR-4): 28.4 µM (inactive) | GI50 (NCI-H226): 43.3 µM (inactive) | GI50 (A498): > 100 µM (inactive) | GI50 (IGROV-1): > 100 µM (inactive) | GI50 (SK-MEL-2): > 100 µM (inactive) | GI50 (CAKI-1): > 10 µM (inactive) | GI50 (SF-295): 63.7 µM (inactive) | GI50 (KM-20L2): > 100 µM (inactive) | GI50 (SW-620): > 100 µM (inactive) | GI50 (SN12C): > 100 µM (inactive) | GI50 (KM12): > 100 µM (inactive) | GI50 (RXF 631): 41.4 µM (inactive) | GI50 (NCI-H460): > 100 µM (inactive) | GI50 (786-0): 77.8 µM (inactive) | GI50 (SF-539): 31.8 µM (inactive) | GI50 (NCI-H522): > 100 µM (inactive) | GI50 (DMS-273): > 100 µM (inactive) | GI50 (NCI-H23): > 100 µM (inactive) | GI50 (HOP-62): 86.7 µM (inactive) | GI50 (A549): > 100 µM (inactive) | GI50 (CCRF-CEM): > 100 µM (inactive) | GI50 (ACHN): > 100 µM (inactive) | GI50 (OVCAR-5): > 100 µM (inactive) | GI50 (UO-31): > 100 µM (inactive) | GI50 (SR): > 100 µM (inactive) | GI50 (OVCAR-3): > 100 µM (inactive) | GI50 (RPMI-8226): > 100 µM (inactive) | GI50 (U-251): > 100 µM (inactive) | GI50 (HCT-15): > 100 µM | GI50 (MOLT-4): > 100 µM (inactive) | GI50 (LOX IMVI): > 100 µM (inactive) | GI50 (HL-60): > 100 µM (inactive) | GI50 (UACC-257): > 100 µM (inactive) | GI50 (SNB-78): 48.5 µM (inactive)

C=CCC1=C(C)C[C@@H]2CCC(=O)C=C12
GI50 (HT-29): > 100 µM (inactive) | GI50 (K562): > 100 µM (inactive) | GI50 (COLO 205): > 100 µM (inactive) | GI50 (SF-268): > 100 µM (inactive) | GI50 (SNB-19): > 100 µM (inactive) | GI50 (OVCAR-8): > 100 µM (inactive) | GI50 (M14): > 100 µM (inactive) | GI50 (UACC-62): > 100 µM (inactive) | GI50 (RXF 393): > 100 µM (inactive) | GI50 (LXFL 529): > 100 µM (inactive) | GI50 (SK-MEL-28): > 100 µM (inactive) | GI50 (HCT-116): > 100 µM (inactive) | GI50 (SK-OV-3): > 100 µM (inactive) | GI50 (HOP-92): > 100 µM (inactive) | GI50 (OVCAR-4): > 100 µM (inactive) | GI50 (A498): > 100 µM (inactive) | GI50 (IGROV-1): > 100 µM (inactive) | GI50 (SK-MEL-2): > 100 µM (inactive) | GI50 (CAKI-1): > 100 µM (inactive) | GI50 (SF-295): > 100 µM (inactive) | GI50 (SW-620): > 100 µM (inactive) | GI50 (SN12C): > 100 µM (inactive) | GI50 (KM12): > 100 µM (inactive) | GI50 (RXF 631): > 100 µM (inactive) | GI50 (NCI-H460): > 100 µM (inactive) | GI50 (786-0): > 100 µM (inactive) | GI50 (SF-539): > 100 µM (inactive) | GI50 (NCI-H522): > 100 µM (inactive) | GI50 (DMS-273): > 100 µM (inactive) | GI50 (NCI-H23): > 100 µM (inactive) | GI50 (SNB-75): > 100 µM (inactive) | GI50 (HOP-62): > 100 µM (inactive) | GI50 (M19-MEL): > 100 µM (inactive) | GI50 (A549): > 100 µM (inactive) | GI50 (CCRF-CEM): > 100 µM (inactive) | GI50 (ACHN): > 100 µM (inactive) | GI50 (OVCAR-5): > 100 µM (inactive) | GI50 (UO-31): > 100 µM (inactive) | GI50 (TK-10): > 100 µM (inactive) | GI50 (SK-MEL-5): > 100 µM (inactive) | GI50 (OVCAR-3): > 100 µM (inactive) | GI50 (DMS-114): > 100 µM (inactive) | GI50 (RPMI-8226): > 100 µM (inactive) | GI50 (U-251): > 100 µM (inactive) | GI50 (HCT-15): > 100 µM | GI50 (EKVX): > 100 µM (inactive) | GI50 (Malme-3M): > 100 µM (inactive) | GI50 (MOLT-4): > 100 µM (inactive) | GI50 (LOX IMVI): > 100 µM (inactive) | GI50 (HL-60): > 100 µM (inactive) | GI50 (UACC-257): > 100 µM (inactive) | GI50 (SNB-78): > 100 µM (inactive)
